Measured values taken from PubChem BioAssay AID2060341 (Molecular Pharmacology Branch, DTP, NCI, 2025).

Test system: 327498-153-R-J2-PDC multicell spheroid viability
Assay: Anticancer human tumor 327498-153-R-J2-PDC patient-derived uterine carcinosarcoma cell line growth inhibition [IpAb]
Details: for IC50: curve of first compound; for viability, T/C: stronger effect = lower value
How it was run: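 Spheroids of 60% malignant cells, 25% HUVEC and 15% MSC were exposed to targeted agents combined with ipatasertib or abemaciclib. Doses started at or near clinical Cmax (10 microM when unknown) and fell in half-log steps.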

[1] = second compound 0.01 µM, first compound 0.0316 µM
[2] = second compound 0.01 µM, first compound 0.1 µM
[3] = second compound 0.01 µM, first compound 0.316 µM
[4] = second compound 0.01 µM, first compound 1 µM
[5] = second compound 0.01 µM, first compound 3.16 µM
[6] = second compound 0.01 µM, first compound 10 µM
[7] = second compound 0.0316 µM, first compound 0.0316 µM
[8] = second compound 0.0316 µM, first compound 0.1 µM
[9] = second compound 0.0316 µM, first compound 0.316 µM
[10] = second compound 0.0316 µM, first compound 1 µM
[11] = second compound 0.0316 µM, first compound 3.16 µM
[12] = second compound 0.0316 µM, first compound 10 µM
[13] = second compound 0.1 µM, first compound 0.0316 µM
[14] = second compound 0.1 µM, first compound 0.1 µM
[15] = second compound 0.1 µM, first compound 0.316 µM
[16] = second compound 0.1 µM, first compound 1 µM
[17] = second compound 0.1 µM, first compound 3.16 µM
[18] = second compound 0.1 µM, first compound 10 µM
[19] = second compound 0.316 µM, first compound 0.0316 µM
[20] = second compound 0.316 µM, first compound 0.1 µM
[21] = second compound 0.316 µM, first compound 0.316 µM
[22] = second compound 0.316 µM, first compound 1 µM
[23] = second compound 0.316 µM, first compound 3.16 µM
[24] = second compound 0.316 µM, first compound 10 µM
[25] = second compound 1 µM, first compound 0.0316 µM
[26] = second compound 1 µM, first compound 0.1 µM
[27] = second compound 1 µM, first compound 0.316 µM
[28] = second compound 1 µM, first compound 1 µM
[29] = second compound 1 µM, first compound 3.16 µM
[30] = second compound 1 µM, first compound 10 µM
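Wherever viability, T/C is given: 100% = DMSO vehicle control viability.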

SMILES	IC50 (second compound 0.01 µM) [nM]	IC50 (second compound 0.0316 µM) [nM]	IC50 (second compound 0.1 µM) [nM]	IC50 (second compound 0.316 µM) [nM]	IC50 (second compound 1 µM) [nM]	viability, T/C [1] [%]	viability, T/C [2] [%]	viability, T/C [3] [%]	viability, T/C [4] [%]	viability, T/C [5] [%]	viability, T/C [6] [%]	viability, T/C [7] [%]	viability, T/C [8] [%]	viability, T/C [9] [%]	viability, T/C [13] [%]	viability, T/C [14] [%]	viability, T/C [19] [%]	viability, T/C [20] [%]	viability, T/C [25] [%]	viability, T/C [26] [%]	other results
C=CC(=O)N1CCN(c2nc(=O)n(-c3c(C)ccnc3C(C)C)c3nc(-c4c(O)cccc4F)c(F)cc23)C(C)C1 (stereo not given) + CCN1CCN(Cc2ccc(Nc3ncc(F)c(-c4cc(F)c5nc(C)n(C(C)C)c5c4)n3)nc2)CC1	209	< 31.6	< 31.6	< 31.6	< 31.6	63.7	52.8	49	44.5	43	42.2	50.3	42.7	40	42.5	38.1	35.7	33.2	37	36.5	viability, T/C [10]: 41.5%; viability, T/C [11]: 38%; viability, T/C [12]: 38.4%; viability, T/C [15]: 36.9%; viability, T/C [16]: 30.7%; viability, T/C [17]: 38.6%; viability, T/C [18]: 35.5%; viability, T/C [21]: 31.5%; viability, T/C [22]: 32.8%; viability, T/C [23]: 36.5%; viability, T/C [24]: 36.8%; viability, T/C [27]: 29.1%; viability, T/C [28]: 35.5%; viability, T/C [29]: 38.1%; viability, T/C [30]: 44.1%
Cn1ncc(Cl)c1-c1cc(C(=O)NC(CN)Cc2cccc(F)c2)sc1Cl (stereo not given) + CCN1CCN(Cc2ccc(Nc3ncc(F)c(-c4cc(F)c5nc(C)n(C(C)C)c5c4)n3)nc2)CC1	312	125	50.1	< 31.6	64.4	78	60.3	48.7	35.4	24.5	0.14	64.5	49	40.5	53.4	46.2	48.9	44.5	54.1	49.1	viability, T/C [10]: 27.9%; viability, T/C [11]: 24%; viability, T/C [12]: 0.12%; viability, T/C [15]: 34.4%; viability, T/C [16]: 28.1%; viability, T/C [17]: 21.1%; viability, T/C [18]: 0.12%; viability, T/C [21]: 33.9%; viability, T/C [22]: 28.9%; viability, T/C [23]: 20.6%; viability, T/C [24]: 0.14%; viability, T/C [27]: 34.9%; viability, T/C [28]: 29.9%; viability, T/C [29]: 21.7%; viability, T/C [30]: 0.2%
Cn1ncnc1[C@H]1c2n[nH]c(=O)c3cc(F)cc(c23)N[C@@H]1c1ccc(F)cc1 + CCN1CCN(Cc2ccc(Nc3ncc(F)c(-c4cc(F)c5nc(C)n(C(C)C)c5c4)n3)nc2)CC1	18.6	12.1	5.76	2.84	3.84	42.3	25.2					41.2	28.2		39.6	28.9	38.2	32.5	40.8	31.6	viability, T/C (second compound 0.01 µM, first compound 0.000316 µM): 96%; viability, T/C (second compound 0.01 µM, first compound 0.001 µM): 87.3%; viability, T/C (second compound 0.01 µM, first compound 0.00316 µM): 85.3%; viability, T/C (second compound 0.01 µM, first compound 0.01 µM): 58.1%; viability, T/C (second compound 0.0316 µM, first compound 0.000316 µM): 74.8%; viability, T/C (second compound 0.0316 µM, first compound 0.001 µM): 70%; viability, T/C (second compound 0.0316 µM, first compound 0.00316 µM): 63.3%; viability, T/C (second compound 0.0316 µM, first compound 0.01 µM): 50.3%; viability, T/C (second compound 0.1 µM, first compound 0.000316 µM): 68.3%; viability, T/C (second compound 0.1 µM, first compound 0.001 µM): 56.6%; viability, T/C (second compound 0.1 µM, first compound 0.00316 µM): 54.7%; viability, T/C (second compound 0.1 µM, first compound 0.01 µM): 47.2%; viability, T/C (second compound 0.316 µM, first compound 0.000316 µM): 59%; viability, T/C (second compound 0.316 µM, first compound 0.001 µM): 54%; viability, T/C (second compound 0.316 µM, first compound 0.00316 µM): 49.3%; viability, T/C (second compound 0.316 µM, first compound 0.01 µM): 44.8%; viability, T/C (second compound 1 µM, first compound 0.000316 µM): 62.2%; viability, T/C (second compound 1 µM, first compound 0.001 µM): 53.9%; viability, T/C (second compound 1 µM, first compound 0.00316 µM): 51.4%; viability, T/C (second compound 1 µM, first compound 0.01 µM): 45.1%
